This experiment addresses isomerase (Mus musculus (Mouse), UniProt Q91ZQ5). The experiment can be described thus: In vivo murine isomerase assay (recovery of 11-cis-retinal after photobleaching). Also on record: species or system CD-1 (albino) male mice. The note with it: mouse, po, 5 mg/kg oral gavage, negative numbers leveled to 0%. The procedure:
The capability of styrenyl derivatives to inhibit isomerase is determined by an in vivo murine isomerase assay. Brief exposure of the eye to intense light (“photobleaching” of the visual pigment or simply “bleaching”) is known to photo-isomerize almost all 11-cis-retinal in the retina. The recovery of 11-cis-retinal after bleaching can be used to estimate the activity of isomerase in vivo. Procedures were performed essentially as described by Golczak et al., Proc. Natl. Acad. Sci. USA 102:8162-67 (2005). See also Deigner et al., Science, 244: 968-71 (1989); Gollapalli et al., Biochim Biophys Acta. 1651: 93-101 (2003); Parish, et al., Proc. Natl. Acad. Sci. USA, 14609-13 (1998); Radu, et al., Proc Natl Acad Sci USA 101: 5928-33 (2004). […] Mice were gavaged with styrenyl derivative compounds, Compound 1 or Compound 25. Compound B was included as a positive control, and Compound A with low activity was also included. After 1-72 hours in the dark, the mice were exposed to photobleaching of 3,000 lux of white light for 10 minutes. The mice were allowed to recover 2 hours in the dark. The animals were then sacrificed by carbon dioxide inhalation. Retinoids were extracted from the eye and the regeneration of 11-cis-retinal was assessed at various time intervals. All steps were performed in darkness with minimal redlight illumination (low light darkroom lights and […] flashlights for spot illumination as needed) (see, e.g., Maeda et al., J. Neurochem 85:944-956, 2003; Van Hooser et al., J Biol Chem 277:19173-82, 2002). After the mice were sacrificed, the eyes were immediately removed and placed in liquid nitrogen. The eyes were then homogenized in a glass/glass homogenizer (Kontes Glass Co., homogenizer & pestle 21) containing 1 ml retinoid analysis buffer (50 mM MOPS, 10 mM NH2OH, 50% EtOH, pH 7.0 (stock buffer was stored in absence of ethanol)). The eyes were homogenized until no visible tissue remained (approximately 3 minutes). The samples were incubated 20 minutes at room temperature (including homogenizing) and then placed on ice. One ml cold EtOH was added to the homogenate to rinse the pestle, and the homogenate mixture was transferred to 7 ml glass screwtop tubes on ice. The homogenizer was rinsed with 7 ml hexane, which was added to the 7 ml tubes on ice. The homogenate was mixed by vortexing at high speed for 1 minute. The phases were separated by centrifugation (5 minutes at 4000 rpm, 4° C.). The upper phase was collected and transferred to a clean glass test tube, taking care to avoid disturbing the interface by leaving approximately 0.2 ml of upper phase in the tube. The tubes with the collected upper phase were placed in a heating block at 25° C. and dried under a stream of Argon ( 30 minutes). The lower phase was again extracted by adding 4 ml hexane, vortexing, and separating the phases by centrifugation. The upper phase was collected as described above and pooled into the drying tubes. The dried samples were solubilized in 300 μl Hexane (Fisher Optima grade) and vortexed lightly. The samples were transferred to clean 300 μl glass inserts in HPLC vials using glass pipette and the vials were crimped shut tightly. […] Part #235341). […] The area under the curve for 11-cis retinal oxime was calculated by Agilent Chemstation software and was recorded manually. Data processing was performed using Prizm software. Positive control mice (no compound administered) were sacrificed fully dark-adapted and the eye retinoids analyzed. Light (bleached) control mice (no compound administered) were sacrificed and retinoids isolated and analyzed immediately after light treatment.

One compound from patent US10201545B2, “Styrenyl derivative compounds for treating ophthalmic diseases and disorders” (Acucela Inc., priority 2007, dated 2019) can be followed below.

Sequence of isomerase (Q91ZQ5 whole entry): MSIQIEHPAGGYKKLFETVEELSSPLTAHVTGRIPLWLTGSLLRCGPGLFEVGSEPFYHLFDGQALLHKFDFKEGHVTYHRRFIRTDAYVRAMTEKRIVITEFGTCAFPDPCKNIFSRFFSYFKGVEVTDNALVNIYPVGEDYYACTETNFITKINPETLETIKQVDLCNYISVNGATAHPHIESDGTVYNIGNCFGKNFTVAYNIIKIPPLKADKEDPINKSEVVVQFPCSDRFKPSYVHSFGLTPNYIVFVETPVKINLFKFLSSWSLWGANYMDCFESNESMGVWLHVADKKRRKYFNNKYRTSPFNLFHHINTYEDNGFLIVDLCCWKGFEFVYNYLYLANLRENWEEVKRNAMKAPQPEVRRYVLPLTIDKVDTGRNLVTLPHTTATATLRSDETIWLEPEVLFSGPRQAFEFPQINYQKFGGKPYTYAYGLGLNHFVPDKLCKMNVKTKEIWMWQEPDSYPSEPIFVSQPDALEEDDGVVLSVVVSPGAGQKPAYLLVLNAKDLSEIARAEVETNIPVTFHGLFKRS

A word on the inhibition: it is the change of the read-out against control, counted positive when it falls. `NCCC(O)c1cccc(/C=C/C2(O)CCCCC2)c1` (centres unmarked) [Example 111, (E)-1-(3-(3-amino-1-hydroxypropyl)styryl)cyclohexanol]: the inhibition at 5 mg/kg was 90% (4 h) and 0% (24 h).
